Test results as given in PubChem BioAssay (NCI).
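Method: 48-hour compound exposure of cells in 96-well plates, five concentrations, linear interpolation of endpoints. GI50 = concentration required for 50% inhibition of growth. At the TGI there is no net growth.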

Legend:
Test in all cases: NCI-60 cell line screen, 48 h
[1] = test system: SR leukemia
[2] = test system: MCF7 breast
[3] = test system: HOP-62 NSCLC
[4] = test system: HCT-15 colon
[5] = test system: A498 renal
[6] = test system: HCT-116 colon
[7] = test system: SK-MEL-28 melanoma
[8] = test system: NCI-H226 lung
[9] = test system: UACC-62 melanoma
[10] = test system: KM12 colon
[11] = test system: NCI-H460 lung
[12] = test system: MDA-MB-231 breast
[13] = test system: RPMI-8226 leukemia
[14] = test system: SK-MEL-2 melanoma
[15] = test system: DU-145 prostate
[16] = test system: SN12C renal
[17] = test system: HCC-2998 colon
[18] = test system: MOLT-4 leukemia
[19] = test system: IGROV1 ovarian
[20] = test system: SF-539 CNS
[21] = test system: MDA-MB-435
[22] = test system: COLO 205 colon
[23] = test system: 786-0 renal
[24] = test system: SK-MEL-5 melanoma
[25] = test system: U251 CNS
[26] = test system: SF-295 CNS
[27] = test system: K-562 leukemia
[28] = test system: NCI-H522 lung
[29] = test system: SK-OV-3 ovarian
[30] = test system: OVCAR-8 ovarian
[31] = test system: SW-620 colon
[32] = test system: OVCAR-3 ovarian
[33] = test system: SF-268 CNS
[34] = test system: M14 melanoma
[35] = test system: RXF 393 renal
[36] = test system: HL-60(TB) leukemia
[37] = test system: A549 NSCLC
[38] = test system: OVCAR-4 ovarian
[39] = test system: CCRF-CEM leukemia
[40] = test system: SNB-19 CNS
[41] = test system: LOX IMVI melanoma
[42] = test system: UACC-257 melanoma
[43] = test system: OVCAR-5 ovarian
[44] = test system: CAKI-1 renal
[45] = test system: SNB-75 CNS
[46] = test system: ACHN renal
[47] = test system: HS 578T breast
[48] = test system: UO-31 renal
[49] = test system: BT-549 breast
[50] = test system: HT29 colon
[51] = test system: PC-3 prostate
[52] = test system: NCI/ADR-RES ovarian
[53] = test system: MALME-3M melanoma
[54] = test system: T-47D breast
[55] = test system: HOP-92 NSCLC
[56] = test system: NCI-H23 lung
[57] = test system: EKVX NSCLC
[58] = test system: TK-10 renal

SMILES: O=C(/C=C\c1ccc(Cl)c(Cl)c1)c1ccccc1
- GI50 [1]: 2.75 µM
- TGI [1]: 9.22 µM
- GI50 [2]: 1.89 µM
- TGI [2]: 5.58 µM
- GI50 [3]: 17.3 µM
- TGI [3]: 35.1 µM
- GI50 [4]: 2.84 µM
- TGI [4]: 10.3 µM
- GI50 [5]: 12.4 µM
- TGI [5]: 25.2 µM
- GI50 [6]: 1.91 µM
- TGI [6]: 3.89 µM
- GI50 [7]: 13.9 µM
- TGI [7]: 27.3 µM
- GI50 [8]: 13.9 µM
- TGI [8]: 30.7 µM
- GI50 [9]: 9.33 µM
- TGI [9]: 21.6 µM
- GI50 [10]: 3.07 µM
- TGI [10]: 8.88 µM
- GI50 [11]: 15.9 µM
- TGI [11]: 32.9 µM
- GI50 [12]: 12.3 µM
- TGI [12]: 25.2 µM
- GI50 [13]: 2.11 µM
- TGI [13]: 4.86 µM
- GI50 [14]: 13.8 µM
- TGI [14]: 27.4 µM
- GI50 [15]: 10.1 µM
- TGI [15]: 21.9 µM
- GI50 [16]: 6.77 µM
- TGI [16]: 19.9 µM
- GI50 [17]: 4.75 µM
- TGI [17]: 16.9 µM
- GI50 [18]: 5.36 µM
- TGI [18]: 40.3 µM
- GI50 [19]: 6.82 µM
- TGI [19]: 21 µM
- GI50 [20]: 15.3 µM
- TGI [20]: 29.6 µM
- GI50 [21]: 4.48 µM
- TGI [21]: 16.7 µM
- GI50 [22]: 13.6 µM
- TGI [22]: 29.7 µM
- GI50 [23]: 8.07 µM
- TGI [23]: 21.6 µM
- GI50 [24]: 16.7 µM
- TGI [24]: 30.9 µM
- GI50 [25]: 3.34 µM
- TGI [25]: 15.6 µM
- GI50 [26]: 10.9 µM
- TGI [26]: 23.2 µM
- GI50 [27]: 2.82 µM
- TGI [27]: 8.1 µM
- GI50 [28]: 10.2 µM
- TGI [28]: 22.2 µM
- GI50 [29]: 14.1 µM
- TGI [29]: 29.8 µM
- GI50 [30]: 3.98 µM
- TGI [30]: 15.1 µM
- GI50 [31]: 2.21 µM
- TGI [31]: 5.52 µM
- GI50 [32]: 6.34 µM
- TGI [32]: 18.9 µM
- GI50 [33]: 11.1 µM
- TGI [33]: 24.7 µM
- GI50 [34]: 7.37 µM
- TGI [34]: 21.5 µM
- GI50 [35]: 12.3 µM
- TGI [35]: 26.6 µM
- GI50 [36]: 5.46 µM
- TGI [36]: 29.1 µM
- GI50 [37]: 11.5 µM
- TGI [37]: 26.2 µM
- GI50 [38]: 8.83 µM
- TGI [38]: 21.3 µM
- GI50 [39]: 2.68 µM
- TGI [39]: 8.78 µM
- GI50 [40]: 10.6 µM
- TGI [40]: 23.6 µM
- GI50 [41]: 2.07 µM
- TGI [41]: 4.48 µM
- GI50 [42]: 12.2 µM
- TGI [42]: 24.9 µM
- GI50 [43]: 15.3 µM
- TGI [43]: 31.3 µM
- GI50 [44]: 6.33 µM
- TGI [44]: 19.3 µM
- GI50 [45]: 11.6 µM
- TGI [45]: 23.8 µM
- GI50 [46]: 7.65 µM
- TGI [46]: 20.5 µM
- GI50 [47]: 17 µM
- TGI [47]: 52.5 µM
- GI50 [48]: 4.09 µM
- TGI [48]: 16.7 µM
- GI50 [49]: 9.85 µM
- TGI [49]: 22 µM
- GI50 [50]: 2.27 µM
- TGI [50]: 5.37 µM
- GI50 [51]: 5.93 µM
- TGI [51]: 20.7 µM
- GI50 [52]: 5.49 µM
- TGI [52]: 26.4 µM

SMILES: CCS(=O)(=O)Nc1ccc(Oc2ccc(F)cc2F)c(-c2cn(C)c(=O)c3[nH]ccc23)c1
- GI50 [1]: 0.0444 µM
- TGI [1]: 30.7 µM
- GI50 [2]: < 0.01 µM
- TGI [2]: 14.3 µM
- GI50 [3]: < 0.0245 µM
- TGI [3]: 26.2 µM
- GI50 [4]: 0.0404 µM
- TGI [4]: 19.5 µM
- GI50 [5]: 0.157 µM
- TGI [5]: 4.01 µM
- GI50 [6]: 0.0321 µM
- TGI [6]: 12.8 µM
- GI50 [7]: 1.64 µM
- TGI [7]: 21 µM
- GI50 [8]: 2.46 µM
- TGI [8]: 20.2 µM
- GI50 [9]: < 0.01 µM
- TGI [9]: 6.28 µM
- GI50 [53]: 0.202 µM
- TGI [53]: 12.9 µM
- GI50 [10]: 0.109 µM
- TGI [10]: 18.2 µM
- GI50 [11]: 0.302 µM
- TGI [11]: 19.3 µM
- GI50 [12]: 0.0494 µM
- TGI [12]: 17.5 µM
- GI50 [13]: < 0.0232 µM
- TGI [13]: 17.5 µM
- GI50 [14]: 0.761 µM
- TGI [14]: 15.9 µM
- GI50 [54]: 0.0253 µM
- TGI [54]: 30.1 µM
- GI50 [15]: 2.88 µM
- TGI [15]: 31.4 µM
- GI50 [16]: 0.981 µM
- TGI [16]: 31.2 µM
- GI50 [17]: 0.0342 µM
- TGI [17]: 1.38 µM
- GI50 [18]: 0.408 µM
- TGI [18]: 15.6 µM
- GI50 [19]: 0.0327 µM
- TGI [19]: 20.5 µM
- GI50 [20]: 0.0135 µM
- TGI [20]: 16.1 µM
- GI50 [21]: < 0.0112 µM
- TGI [21]: 13.3 µM
- GI50 [22]: < 0.01 µM
- TGI [22]: 6.29 µM
- GI50 [23]: 0.192 µM
- TGI [23]: 18.1 µM
- GI50 [24]: 0.0727 µM
- TGI [24]: 7.29 µM
- GI50 [25]: 0.293 µM
- TGI [25]: 16.8 µM
- GI50 [26]: 0.0742 µM
- TGI [26]: 20.1 µM
- GI50 [27]: 0.0322 µM
- TGI [27]: > 62.6 µM
- TGI [55]: 28.3 µM
- GI50 [28]: < 0.01 µM
- TGI [28]: 5.92 µM
- GI50 [56]: 0.0956 µM
- TGI [56]: 13.5 µM
- GI50 [29]: < 0.0109 µM
- TGI [29]: 6.2 µM
- GI50 [30]: 0.253 µM
- TGI [30]: 43.1 µM
- GI50 [31]: 1.65 µM
- TGI [31]: 25.8 µM
- GI50 [32]: 0.0402 µM
- TGI [32]: 19.6 µM
- GI50 [33]: 1.57 µM
- TGI [33]: 53.2 µM
- GI50 [34]: < 0.0138 µM
- TGI [34]: 17 µM
- GI50 [35]: 1.62 µM
- TGI [35]: 14.1 µM
- GI50 [36]: < 0.01 µM
- TGI [36]: 0.249 µM
- GI50 [37]: 0.152 µM
- TGI [37]: 28.1 µM
- GI50 [38]: 0.275 µM
- TGI [38]: 37 µM
- GI50 [39]: 0.162 µM
- TGI [39]: > 60 µM
- GI50 [40]: 0.31 µM
- TGI [40]: 30.9 µM
- GI50 [41]: 0.0124 µM
- TGI [41]: 0.905 µM
- GI50 [57]: 0.196 µM
- TGI [57]: 31.9 µM
- GI50 [42]: 0.0448 µM
- TGI [42]: 23.1 µM
- GI50 [58]: < 0.01 µM
- TGI [58]: 1.25 µM
- GI50 [43]: 1.29 µM
- TGI [43]: 34.7 µM
- GI50 [45]: < 0.01 µM
- TGI [45]: 0.986 µM
- GI50 [46]: 0.153 µM
- TGI [46]: 27.2 µM
- GI50 [47]: < 0.0183 µM
- TGI [47]: 36.5 µM
- GI50 [48]: < 0.01 µM
- TGI [48]: 12 µM
- GI50 [49]: 0.366 µM
- TGI [49]: 21.3 µM
- GI50 [50]: < 0.01 µM
- TGI [50]: 14.1 µM
- GI50 [51]: 0.0656 µM
- TGI [51]: 49.4 µM
- GI50 [52]: 0.561 µM
- TGI [52]: 39.4 µM
